Assay [1] concerns neuropathic rats (chronic constriction nerve injury). Briefly: Chronic constriction nerve injury model of neuropathic pain: mechanical allodynia (Von Frey filaments). The format is in vivo, rat. As to conditions: 10 mg/kg i.p. How it is done: (§1) The aim of this study was to assess the potential analgesic effects of Example 92 following intraperitoneal administration at the doses of 3, 10 and 30 mg/kg, respectively, in an animal model of neuropathic pain. A peripheral mononeuropathy was induced in the right hind limb of rats following a chronic constriction nerve injury (Bennett and Xie, 1988), and the development of mechanical allodynia and thermal hyperalgesia was monitored using established behavioral tests (Attal, N., et al., 1990; Hargreaves, K., et al., 1988).
(§2) Male Sprague-Dawley rats within the weight range of 200-225 g, and approximate age 7-9 weeks, were allowed to acclimate for a minimum of 6 days prior to the start of the behavioral testing.
(§3) All rats underwent a chronic constriction nerve injury, and of these, those that successfully developed allodynia and hyperalgesia were allocated to treatment groups.
(§4) There were 5 separate treatment groups (with a minimum of 10 rats per group). The treatment groups were as follows: • Group C received Morphine at 10 mg/kg (n=10) • Group D received Vehicle for Example 92* at 1 ml/kg (n=10) (* 100% DMSO) • Group E received Example 92 at 30 mg/kg (n=10) • Group F received Example 92 at 3 mg/kg (n=10) • Group G received Example 92 at 10 mg/kg (n=10)
(§5) The dose volume for all treatments was 1 ml/kg. Each rat received a single i.p. dose of the test substance, reference substance or vehicle on Day 12 PO. Test substance and vehicle dosing solutions were encoded (C-G) so that the observers were unaware of the identity of the treatment groups.
(§6) The behavioral tests (Von Frey filament and Thermal Plantar Tests—see below) were performed on all rats on 3 separate days prior to […], to establish baseline values. The pre-surgery baseline values were calculated as the mean of the last 2 days testing (the data from the first day of testing were not included as this was classed as part of the acclimating period). The sequence of tests was always mechanical allodynia (Von Frey Test) followed by thermal hyperalgesia (Thermal Plantar Test), with a minimum 5 min period allowed between the 2 tests.
Each animal was placed in a wire mesh cage and a series of Von Frey filaments (ranging from filament handle number 3.61 to 6.10) applied to the plantar surface of the hind paw, from below. The filaments were applied in ascending order (starting with the weakest force) and the withdrawal threshold for both the ipsilateral and contralateral hind paws was evaluated. Each filament was indented on the plantar surface of the foot to the point where it just started to bend, and this was repeated approximately 8-10 times per filament at a frequency of approximately 1 Hz. The withdrawal threshold was defined as the lowest force of two or more consecutive Von Frey filaments to elicit a reflex withdrawal response.
The animals were surgically prepared over 5 days. Each rat was anaesthetized with sodium pentobarbitone (60 mg/ml; 0.6 ml/kg dose, intraperitonealy; batch number 00230; expiry date 22 May 3) and then supplemented as necessary with isoflurane (1-3% in oxygen). The surface around the incision site was shaved and then sterilized with surgical spirit. Under aseptic conditions the right sciatic nerve was exposed by blunt dissection at mid-thigh level and approximately 1 cm of nerve was freed of adhering connective tissue. Four chromic cat gut (4.0) ligatures, spaced at approximately 1 mm inzervals, were then tied so as to barely constrict the nerve (as viewed under 40× magnification) to induce a peripheral mononeuropathy in the right hind limb. The overlying muscle and skin were then closed in layers using suture material, and the anesthesia discontinued. On recovery from anesthesia, the rats were re-housed with their cage mates on soft padded bedding overnight (to reduce the risk of infection) and subsequently on sawdust bedding following full recovery. The animals were allowed 4 full days to recover before the behavioral testing was recommenced. […]

For assay [2] the test system is unchanged. The assay is described as follows: Chronic constriction nerve injury model of neuropathic pain: thermal hyperalgesia (Thermal Plantar Test). The format is in vivo, rat. As to conditions: 10 mg/kg i.p. How it is done: as §1, §2, §3, §4, §5, §6
Each rat was placed in a clear plastic chamber with a glass floor and allowed a short period to acclimatize to the new environment (approximately 5 min.). The animals were then challenged with a radiant Infrared (IR) heat source, directed at the plantar surface of the hind paw from below, and the withdrawal latency of both the ipsilateral and contralateral hind paws was evaluated. The infrared intensity was set at IR50 and the maximum length of exposure to the IR source was 18 s. Non-responding animals were allocated a withdrawal latency of 18 s.
The animals were surgically prepared over 5 days. […]

Another assay deals with T1, human GAL1 receptor (Homo sapiens, UniProt P47211).
T1 construct: expressed in transfected cells
T1 sequence (P47211 1-349): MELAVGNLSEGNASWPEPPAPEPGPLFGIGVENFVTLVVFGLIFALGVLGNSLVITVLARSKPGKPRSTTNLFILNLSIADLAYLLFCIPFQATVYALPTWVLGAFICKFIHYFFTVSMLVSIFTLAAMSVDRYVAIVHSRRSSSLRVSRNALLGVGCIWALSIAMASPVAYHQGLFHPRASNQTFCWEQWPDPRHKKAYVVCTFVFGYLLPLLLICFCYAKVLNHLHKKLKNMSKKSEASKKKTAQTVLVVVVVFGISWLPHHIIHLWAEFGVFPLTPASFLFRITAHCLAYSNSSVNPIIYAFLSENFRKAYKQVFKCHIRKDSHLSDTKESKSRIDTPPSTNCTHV
Briefly: Radioligand binding at cloned human GAL1 receptor. As to conditions: read-out: Ki (nM) GalR1. How it is done: (§7) The present invention provides for a method of determining the binding affinity of a GAL3 antagonist, wherein the GAL3 antagonist is dissolved in a “suitable solvent”. A “suitable solvent” means one which permits the measurement of binding affinity of the GAL3 antagonist to the human GAL3 receptor at concentrations less than 1 μM, preferably less than 100 nM. Examples of solvents include, but are not limited to, DMSO, ethanol, N,N-dimethylacetamide, or water. For indolones, the preferred solvent is 3% DMSO (final concentration in the assay). For pyrimidines, the preferred solvent is 1% ethanol/0.09% polypuronic acid F-127 (final concentration in the assay). For any other type of compounds, the preferred solvent is the solvent which permits the measurement of binding affinity of a GAL3 antagonist at the lowest concentration. Once a suitable solvent is ascertained for the binding assay of the human GAL3 receptor, the same solvent is used in assays to determine the binding affinity for instance, at the GAL1 receptor.
(§8) LM(tk−) cells were stably transfected with the human GAL1 or GAL3 receptor. CHO cells were stably transfected with the human GAL2 receptor.
(§9) cDNAs for the human and rat GAL1, and human and rat GAL3 receptors were transfected with a G-418 resistant gene into the mouse fibroblast LM(tk−) cell line by a calcium phosphate transfection method (Cullen, 1987). Stably transfected cells were selected with G-418. Human and rat GAL2 receptors were similarly transfected into CHO cells.
Membranes were harvested from stably transfected LM(tk−) cells. Adherent cells were washed twice in ice-cold phosphate buffered saline (138 mM NaCl, 8.1 mM Na2HPO4, […] KCl, 1.2 mM KH2PO4, 0.9 mM CaCl2, 0.5 mM MgCl2, pH 7.4) and lysed by sonication in ice-cold sonication buffer (20 mM Tris-HCl, 5 mM EDTA, pH 7.7). Large particles and debris were cleared by low speed centrifugation (200×g, 5 min, 4° C.). Membranes were collected from the supernatant fraction by centrifugation (32,000×g, 18 min, 4° C.), washed with ice-cold hypotonic buffer, and collected again by centrifugation (32,000×g, 18 min, 4° C.). The final membrane pellet was resuspended by sonication into a small volume of ice-cold binding buffer (˜1 ml for every 5 plates: 10 mM NaCl, […] HEPES, 0.22 mM KH2PO4, 1.26 mM Cal2, 0.81 mM MgSO4, pH 7.4). Protein concentration was measured by the Bradford method (Bradford, 1976) using Pio-Rad Reagent, with bovine serum albumin as a standard. Membranes were held on ice for up to one hour and used fresh, or flash frozen and stored in liquid nitrogen. Membranes were prepared similarly from CHO cells. […]
(§10) Binding data were analyzed using nonlinear regression and statistical techniques available in the GraphPAD Prism package (San, Diego, Calif.). […]

The target in another assay is T2, human GAL2 receptor (Homo sapiens, UniProt O43603).
T2 construct: expressed in transfected cells
T2 sequence (O43603 1-387): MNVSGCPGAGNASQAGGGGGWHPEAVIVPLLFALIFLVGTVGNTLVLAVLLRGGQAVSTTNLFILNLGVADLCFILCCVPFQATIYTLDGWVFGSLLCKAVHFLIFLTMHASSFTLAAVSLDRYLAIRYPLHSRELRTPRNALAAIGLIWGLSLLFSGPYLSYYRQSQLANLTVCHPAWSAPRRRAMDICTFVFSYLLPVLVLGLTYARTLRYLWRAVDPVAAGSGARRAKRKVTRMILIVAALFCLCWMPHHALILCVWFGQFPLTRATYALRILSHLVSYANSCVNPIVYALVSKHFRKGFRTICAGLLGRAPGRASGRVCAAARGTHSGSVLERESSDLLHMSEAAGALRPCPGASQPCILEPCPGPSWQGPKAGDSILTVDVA
Briefly: Radioligand binding at cloned human GAL2 receptor. As to conditions: read-out: Ki (nM) GalR2. The procedure:
as §7, §8, §9
(§11) Membranes were harvested from stably transfected LM(tk−) cells. Adherent cells were washed twice in ice-cold phosphate buffered saline (138 mM NaCl, 8.1 mM Na2HPO4, […] KCl, 1.2 mM KH2PO4, 0.9 mM CaCl2, 0.5 mM MgCl2, pH 7.4) and lysed by sonication in ice-cold sonication buffer (20 mM Tris-HCl, 5 mM EDTA, pH 7.7). […] Protein concentration was measured by the Bradford method (Bradford, 1976) using Pio-Rad Reagent, with bovine serum albumin as a standard. […]
as §10

The target in another assay is T3, human GAL3 receptor (Homo sapiens, UniProt O60755).
T3 construct: expressed in transfected cells
T3 sequence (O60755 1-368): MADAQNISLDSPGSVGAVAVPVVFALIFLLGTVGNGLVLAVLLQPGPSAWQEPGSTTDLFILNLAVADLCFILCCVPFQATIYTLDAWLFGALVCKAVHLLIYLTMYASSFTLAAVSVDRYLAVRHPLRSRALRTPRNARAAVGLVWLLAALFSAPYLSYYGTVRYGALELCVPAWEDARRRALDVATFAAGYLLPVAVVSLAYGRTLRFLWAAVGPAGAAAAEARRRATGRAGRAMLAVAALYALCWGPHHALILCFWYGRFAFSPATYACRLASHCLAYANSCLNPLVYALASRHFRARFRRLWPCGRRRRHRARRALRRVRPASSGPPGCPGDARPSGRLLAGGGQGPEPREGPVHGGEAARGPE
Briefly: Radioligand binding at cloned human GAL3 receptor. How it is done:
as §7, §8, §9, §11, §10

Consider six molecules from patent US7220775B2, “Compound useful for the treatment of neuropathic pain” (H. Lundbeck A/S, priority 2002, dated 2007).

Like-named read-outs stand apart in the source and are kept apart here.

In general, Ki refers to the dissociation constant of the complex between target and ligand, obtained from inhibition or displacement.

With `CN1CC[C@]23c4c5ccc(O)c4O[C@H]2[C@@H](O)C=C[C@H]3[C@H]1C5` [morphine, reference compound], the “contralateral paw effects (Von Frey)” value in assay [1] (30 and 90 min) was “significant contralateral effects”. For the same molecule, in assay [1] (up to 90 min PD), the “effect on withdrawal threshold of the nerve-injured hind paw (Von Frey)” value was “significantly increased”. Moreover, the “effect on withdrawal latency of the nerve-injured hind paw to the thermal plantar device” value in assay [2] (approx. 40 and 100 min PD) is recorded as “significantly increased”. In addition, the “withdrawal latency to a noxious heat stimulus, nerve-injured and contralateral hind paws” value in assay [2] (up to 100 min PD) is recorded as “significant increase”.
On to `COc1ccc(N2CCN(c3nc(Nc4ccc(C)cc4)cc(N4CCCCC4)n3)CC2)c(OC)c1` [Example 28], for which the Ki on human GAL1 receptor (Table 1, pyrimidines) was above 5000 nM; at human GAL2 receptor (Table 1, pyrimidines), above 5000 nM; at human GAL3 receptor (Table 1, pyrimidines, read-out: Ki (nM) GalR3), 270 nM.
Regarding `CN(C)c1cc(NC2C3CC4CC(C3)CC2C4)nc(N2CCN(Cc3ccccc3)CC2)n1` (centres unmarked) [Example 137], on human GAL3 receptor (Table 3a, pyrimidines, read-out: Ki (nM) Gal3), the Ki turned out to be 124 nM.
With `Cc1ccccc1Nc1cc(N(C)C)nc(Nc2ccccc2)n1` [Example 51], the Ki at human GAL1 receptor (Table 2, pyrimidines) was above 5000 nM; at human GAL2 receptor (Table 2, pyrimidines), above 5000 nM.
For the molecule `CN(C)c1cc(N)nc(N(c2ccccc2)c2ccc(Cl)cc2)n1` [Example 58], the inhibition constant Ki on human GAL1 receptor (Table 2, pyrimidines) was above 5000 nM; at human GAL2 receptor (Table 2, pyrimidines) it was above 5000 nM; on human GAL3 receptor (Table 2, pyrimidines, read-out: Ki (nM) GalR3) it was 783 nM.
For the molecule `C[C@H]1CC2CC([C@@H]1Nc1cc(N(C)C)nc(Nc3ccccc3)n1)C2(C)C` (some centres unmarked) [Example 71], the Ki at human GAL1 receptor (Table 2, pyrimidines) was above 5000 nM.
